Laboratory results from EPA's ToxRefDB 2.

Columns and labels:
rat [1] = conditions: Subchronic oral toxicity in rodents, fischer, Feed, dose end: 13 week, group: systemic
rat [2] = conditions: Carcinogenicity, fischer, Oral, Feed, dose end: 2 year, group: systemic
rat [3] = conditions: Multigenerational reproductive toxicity study, wistar, Oral, Feed, dose end: 2 generation
rat [4] = conditions: Prenatal developmental toxicity study, fischer, Oral, Gavage/Intubation, dose end: 15 GD
mouse [5] = conditions: Carcinogenicity, b6c3f1, Oral, Feed, dose end: 2 year, group: systemic
mouse [6] = conditions: Subchronic oral toxicity in rodents, b6c3f1, Feed, dose end: 13 week, group: systemic
mouse [7] = conditions: Subchronic oral toxicity in rodents, cd1, Water, dose end: 90 day, group: systemic, systemic / hematology / leukocyte (wbc) count differential / leukocyte (wbc)
rat [8] = conditions: Subchronic oral toxicity in rodents, fischer, Feed, dose end: 13 week, group: systemic; remark: listed apart in the source
mouse [9] = conditions: Subchronic oral toxicity in rodents, cd1, Feed, dose end: 13 week, group: systemic
rat [10] = conditions: Combined chronic toxicity/carcinogenicity; fischer; Oral; Feed; dose end: 104 week; group: systemic; systemic / pathology microscopic / kidney / hemosiderosis
rat [11] = conditions: Subchronic oral toxicity in rodents, sprague dawley, Feed, dose end: 90 day, group: systemic
mouse [12] = conditions: Subchronic oral toxicity in rodents, cd1, Feed, dose end: 13 week, group: systemic; remark: listed apart in the source
mouse [13] = conditions: Subchronic oral toxicity in rodents, cd1, Feed, dose end: 90 day, group: systemic
dog [14] = conditions: Subchronic oral toxicity in nonrodent, beagle, Feed, dose end: 13 week, group: systemic
dog [15] = conditions: Chronic toxicity, beagle, Oral, Feed, dose end: 12 month, group: systemic
rat [16] = conditions: Subchronic inhalation toxicity, wistar, Whole-Body, dose end: 13 week, group: systemic, systemic / pathology microscopic / lung / alveolar macrophages + systemic / pathology microscopic / lung / fibrosis + systemic / pathology …
rat [17] = conditions: Subchronic inhalation toxicity, wistar, Whole-Body, dose end: 13 week, group: systemic, systemic / clinical chemistry / alanine aminotransferase (alt/sgpt) / alanine aminotransferase (alt/sgpt) + systemic / clinical chemistry / …
rat [18] = conditions: Subchronic inhalation toxicity, wistar, Whole-Body, dose end: 13 week, group: systemic, systemic / pathology microscopic / lung / alveolar macrophages + systemic / in life observation / body weight / body weight
rat [19] = conditions: Subchronic inhalation toxicity, wistar, Whole-Body, dose end: 13 week, group: systemic
[20] = systemic / in life observation / body weight / body weight + systemic / pathology microscopic / bone marrow / atrophy + systemic / in life …
[21] = systemic / in life observation / food consumption / food consumption
[22] = group: offspring, systemic / pathology gross / mammary gland / discolored + systemic / pathology gross / mammary gland / enlarged
[23] = group: parental, systemic / in life observation / clinical signs / body surface staining + systemic / in life observation / body weight / body weight + …
[24] = group: parental, systemic / organ weight / pituitary gland / absolute + systemic / organ weight / pituitary gland / relative to body weight
[25] = group: reproductive, reproductive / reproductive performance / implantations / implantations
[26] = group: developmental, developmental / developmental malformation / bone / delayed ossification + developmental / developmental malformation / bone / unossified + …
[27] = group: maternal, systemic / in life observation / body weight / body weight + systemic / in life observation / body weight / body weight gain + systemic / in…
[28] = group: maternal, systemic / in life observation / body weight / body weight gain + systemic / in life observation / clinical signs / urogenital staining
[29] = systemic / in life observation / body weight / body weight
[30] = systemic / in life observation / body weight / body weight + systemic / in life observation / food consumption / food consumption
[31] = systemic / pathology microscopic / liver / necrosis
[32] = systemic / clinical chemistry / albumin / albumin
[33] = systemic / organ weight / kidney / absolute + systemic / organ weight / liver / absolute + systemic / organ weight / liver / relative to …
[34] = systemic / in life observation / body weight / body weight + systemic / in life observation / body weight / body weight gain + systemic / in…
[35] = systemic / organ weight / kidney / absolute + systemic / organ weight / kidney / relative to body weight + systemic / pathology microscopic…
[36] = systemic / clinical chemistry / potassium / potassium
[37] = systemic / organ weight / thymus / absolute + systemic / organ weight / thymus / relative to body weight + systemic / pathology gross / …
[38] = systemic / pathology gross / gallbladder / [other] + systemic / pathology gross / gallbladder / distended + systemic / pathology microscopic…
[39] = systemic / pathology microscopic / lung / alveolar macrophages + systemic / pathology microscopic / lung / cholesterol cleft(s) + systemic…

SMILES: Oc1ccc(Cl)cc1Cl [2,4-Dichlorophenol]
- LOAEL (rat [1]; systemic / in life observation / body weight / body weight + systemic / pathology microscopic / bone marrow / atrophy): 1000 mg/kg/day
- NEL (rat [1]; [20]): 250 mg/kg/day
- NOAEL (rat [1]; [20]): 500 mg/kg/day
- LEL (rat [1]; systemic / pathology microscopic / bone marrow / atrophy): 500 mg/kg/day
- LEL (rat [2]; [21]): 120 mg/kg/day
- NEL (rat [2]; [21]): < 120 mg/kg/day
- LOAEL (rat [2]; systemic / pathology microscopic / nose / degeneration): 210 mg/kg/day
- LOAEL (rat [3]; group: offspring, developmental / developmental malformation / eye / open eye + systemic / in life observation / body weight / offspring (pup) weight): 543 mg/kg/day
- NOAEL (rat [3]; group: offspring, developmental / developmental malformation / eye / open eye + systemic / in life observation / body weight / offspring (pup) weight + …): 134 mg/kg/day
- LEL (rat [3]; [22]): 49.1 mg/kg/day
- NEL (rat [3]; [22]): < 49.1 mg/kg/day
- LOAEL (rat [3]; [23]): 543 mg/kg/day
- NOAEL (rat [3]; [23]): 134 mg/kg/day
- LEL (rat [3]; [24]): 33.4 mg/kg/day
- NEL (rat [3]; [24]): < 33.4 mg/kg/day
- LEL (rat [3]; [25]): 768 mg/kg/day
- LOAEL (rat [3]; [25]): 768 mg/kg/day
- NEL (rat [3]; [25]): 194 mg/kg/day
- NOAEL (rat [3]; [25]): 194 mg/kg/day
- LEL (rat [4]; [26]): 750 mg/kg/day
- LOAEL (rat [4]; [26]): > 750 mg/kg/day
- NEL (rat [4]; [26]): 375 mg/kg/day
- NOAEL (rat [4]; [26]): ≥ 750 mg/kg/day
- LOAEL (rat [4]; [27]): > 750 mg/kg/day
- NOAEL (rat [4]; [27]): ≥ 750 mg/kg/day
- LEL (rat [4]; [28]): 200 mg/kg/day
- NEL (rat [4]; [28]): < 200 mg/kg/day
- LOAEL (mouse [5]; [29]): 430 mg/kg/day
- NOAEL (mouse [5]; [29]): < 430 mg/kg/day
- LEL (mouse [5]; [30]): 430 mg/kg/day
- NEL (mouse [5]; [30]): < 430 mg/kg/day
- NOAEL (mouse [6]; systemic / in life observation / body weight / body weight + systemic / in life observation / clinical signs / fur (altered appearance) + …): 1500 mg/kg/day
- LOAEL (mouse [6]; systemic / in life observation / body weight / body weight + systemic / pathology microscopic / liver / necrosis + systemic / pathology …): 3000 mg/kg/day
- LEL (mouse [6]; [31]): 375 mg/kg/day
- NEL (mouse [6]; [31]): < 375 mg/kg/day
- LEL (mouse [7]): 383 mg/kg/day
- LOAEL (mouse [7]): > 383 mg/kg/day
- NEL (mouse [7]): 114 mg/kg/day
- NOAEL (mouse [7]): ≥ 383 mg/kg/day

SMILES: CCCCOC(=O)[C@@H](C)Oc1ccc(Oc2ccc(C#N)cc2F)cc1 [Cyhalofop-butyl]
- LEL (rat [8]; [32]): 1.72 mg/kg/day
- NEL (rat [8]; [32]): < 1.72 mg/kg/day
- NOAEL (rat [8]; systemic / clinical chemistry / albumin / albumin + systemic / pathology microscopic / kidney / [other] + systemic / pathology microscopic…): 60.5 mg/kg/day
- LOAEL (rat [8]; systemic / pathology microscopic / kidney / [other] + systemic / pathology microscopic / kidney / pigmentation + systemic / pathology …): 190 mg/kg/day
- LOAEL (mouse [9]; [33]): > 350 mg/kg/day
- NOAEL (mouse [9]; [33]): ≥ 350 mg/kg/day
- LEL (mouse [9]; systemic / pathology gross / liver / foci): 3 mg/kg/day
- NEL (mouse [9]; systemic / pathology gross / liver / foci + systemic / clinical chemistry / alkaline phosphatase (alp/alk) / alkaline phosphatase (alp/alk…): 1 mg/kg/day
- LEL (rat [10]): 3.44 mg/kg/day
- LOAEL (rat [10]): 3.44 mg/kg/day
- NEL (rat [10]): 0.823 mg/kg/day
- NOAEL (rat [10]): 0.823 mg/kg/day
- LOAEL (rat [11]; [34]): 800 mg/kg/day
- NOAEL (rat [11]; [34]): 400 mg/kg/day
- LEL (rat [11]; systemic / organ weight / liver / absolute + systemic / organ weight / liver / relative to body weight + systemic / pathology gross / liver…): 25 mg/kg/day
- LOAEL (mouse [12]; [35]): 30 mg/kg/day
- NOAEL (mouse [12]; [35]): 10 mg/kg/day
- LEL (mouse [12]; systemic / organ weight / liver / relative to body weight): 3 mg/kg/day
- NEL (mouse [12]; systemic / pathology microscopic / liver / inflammation + systemic / pathology microscopic / liver / necrosis + systemic / organ weight / …): 1 mg/kg/day
- LEL (mouse [13]; systemic / organ weight / liver / absolute): 3.6 mg/kg/day
- NEL (mouse [13]; systemic / organ weight / liver / absolute + systemic / in life observation / clinical signs / alopecia + systemic / organ weight / liver / …): 0.4 mg/kg/day
- LOAEL (mouse [13]; systemic / pathology gross / kidney / enlarged + systemic / pathology microscopic / kidney / hypertrophy): 14.1 mg/kg/day
- NOAEL (mouse [13]; systemic / pathology gross / kidney / enlarged + systemic / pathology microscopic / kidney / hypertrophy + systemic / organ weight / kidney…): 4.3 mg/kg/day
- LEL (dog [14]; [36]): 3.17 mg/kg/day
- NEL (dog [14]; [36]): < 3.17 mg/kg/day
- LOAEL (dog [14]; [37]): 75.2 mg/kg/day
- NOAEL (dog [14]; [37]): 14.7 mg/kg/day
- LEL (dog [15]; systemic / in life observation / body weight / body weight + systemic / in life observation / body weight / body weight gain): 7.59 mg/kg/day
- NEL (dog [15]; systemic / in life observation / body weight / body weight + systemic / in life observation / body weight / body weight gain + systemic / …): 1.22 mg/kg/day
- LOAEL (dog [15]; [38]): > 45.9 mg/kg/day
- NOAEL (dog [15]; [38]): ≥ 45.9 mg/kg/day

SMILES: O=[Si]=O [Silica]
- LEL (rat [16]): 0.03 ppm
- LOAEL (rat [16]): > 0.03 ppm
- NEL (rat [16]): < 0.03 ppm
- NOAEL (rat [16]): ≥ 0.03 ppm
- LEL (rat [17]): 0.06 ppm
- LOAEL (rat [17]): > 0.06 ppm
- NEL (rat [17]): < 0.06 ppm
- NOAEL (rat [17]): ≥ 0.06 ppm
- LEL (rat [18]): 0.03 ppm
- LOAEL (rat [18]): > 0.03 ppm
- NEL (rat [18]): < 0.03 ppm
- NOAEL (rat [18]): ≥ 0.03 ppm
- LOAEL (rat [19]; [39]): > 0.03 ppm
- NOAEL (rat [19]; [39]): ≥ 0.03 ppm
- LEL (rat [19]; systemic / pathology microscopic / lung / proliferation): 0.001 ppm
